Data from US9499570B2, “Boron containing small molecules” (priority 2010, dated 2016).
“Also recorded” adds a separate entry of the source.

Test system: Schistosoma mansoni schistosomula
Assay: Schistosoma mansoni schistosomula phenotype screen in vitro
Conditions: First Set
Text: Puerto Rican isolates of S. mansoni using Biomphalaria glabrata snails and golden hamsters as intermediate and definitive hosts, respectively, were maintained and handled in the University of California-San Francisco Sandler Center for Tropical Medicine. Patent B. glabrata snails (6-8 weeks after exposure to 5-10 infectious miracidia) were induced to shed infective larvae (cercariae) under light stimulus into the surrounding water. Cercariae were washed in rounds of ice-cold water and concentrated through and over sieves of varying pore sizes. They were then mechanically sheared (separation of heads from tails) as described in Colley D G, et al. Exp Parasitol 1974, 35:44-51, in ice-cold Incomplete Medium 169 (as described in Basch P F. J Parasitol 1981, 67:179-185, minus FBS and antibiotics) by passing 15 times through a double headed 22-gauge syringe needle connected to two 10 mL syringes. The resulting cercarial heads (schistosomula) were separated from their tails by swirling in a petri dish. Concentrated schistosomula were added to a sterile 1.5 mL centrifuge tube and allowed to settle over ice. Schistosomula were transferred to a sterile environment and washed 4 times in Incomplete Medium 169 prior to plating.
Two sets of screening were performed. In the first set, compounds were screened against schistosomula and observations were made at 24 hours, 2 days, 3 days, 4 days, and 6 days. In the second set, compounds were screened against schistosomula with observations at 24 hours, 2 days, 3 days, and 4 days and adult worms at 7 hours, 24 hours, 4 days, and 6 days.
Plates contain 200 schistosomula/well in […] complete Basch medium and were maintained at 37° C. in a 5% CO2 atmosphere. All compounds were tested in duplicate with at least two experimental replicates. Compounds and control compounds were added to the plates using the Biomek FXp using 96-well disposable tips. Final concentration of DMSO in each well was 0.5%.
A semi-quantitative and controlled nomenclature for phenotypes that can arise as a result of compound insult to both schistosomula and adults was utilized (Abdulla M H, et al., PLoS Negl Trop Dis 2009, 3:e478). Phenotypes were recorded by visual inspection and on a flexible time basis but at least at 24 h and 4 day time-points in the case of large scale screening. […] To help eliminate bias, two screen analysts scored phenotypes ‘blind’ both to knowledge of the contents of each screening plate and the phenotypes scored by his/her colleague. Upon completing their individual assessments, each analyst's ‘hit sheet’ was then compared to derive a ‘consensus hit sheet’. Discrepancies in analysts' hit sheets were re-evaluated under the microscope to eventually make a consensus hit call.
Hyper-coiled and coiled represent a verbal description of the visual phenotype as compared to the DMSO control. The + and ++ and +++ means more of the phenotype which preceded it. The − means less of the phenotype which preceded it. Results

| SMILES | Schistosomula phenotype day 6 | Schistosomula phenotype day 3 | also measured |
| --- | --- | --- | --- |
| COCCNc1ccc(C#N)c(Oc2ccc3c(c2)COB3O)n1 [2-(1-Hydroxy-1,3-dihydro-benzo[c][1,2]oxaborol-5-yloxy)-6-(2-methoxy-ethylamino)-nicotinonitrile] | O+ R and Partial D (Partial D=partial killing of worm population) |  |  |
| N#Cc1ccc(Oc2ccc3c(c2)COB3O)nc1OCC(F)F [2-(2,2-Difluoro-ethoxy)-6-(1-hydroxy-1,3-dihydro-benzo[c][1,2]oxaborol-5-yloxy)-nicotinonitrile] | R O+ and Partial D (Partial D=partial killing of worm population) | O+ and Deg-M (Deg-M=worms in morphological disarray but still living) |  |
| N#Cc1ccc(Oc2ccc3c(c2)COB3O)nc1NCCOCc1ccccc1 [2-(2-Benzyloxy-ethylamino)-6-(1-hydroxy-1,3-dihydro-benzo[c][1,2]oxaborol-5-yloxy)-nicotinonitrile] | R O+ and Partial D (Partial D=partial killing of worm population) | O+ and Deg-M (Deg-M=worms in morphological disarray but still living) | Schistosomula phenotype 24 h: O+ and some and deg-M |
| Cl.N#Cc1ccc(Oc2ccc3c(c2)COB3O)c(OCc2ccccn2)c1 [2-((5-Cyano-2-(1-hydroxy-1,3-dihydrobenzo[c][1,2]oxaborol-5-yloxy)phenoxy)methyl)pyridine hydrochloride] |  |  | Schistosomula phenotype 24 h (hydrochloride): R (R=round) and O++; Schistosomula phenotype day 2 (hydrochloride): O+, and M−; Schistosomula phenotype day 4 (hydrochloride): O+, and Partial D (Partial D=partial killing of worm population); Schistosomula phenotype day 6 (hydrochloride): O+, and Partial and D, R |
| N#Cc1ccc(Oc2ccc3c(c2)COB3O)nc1NCc1ccccc1 [2-Benzylamino-6-(1-hydroxy-1,3-dihydro-benzo[c][1,2]oxaborol-5-yloxy)-nicotinonitrile] | R O and Partial D (Partial D=partial killing of worm population) |  | Schistosomula phenotype 24 h: O++ and some and deg-M |
| CCOc1nc(Oc2ccc3c(c2)COB3O)ccc1C#N [2-Ethoxy-6-(1-hydroxy-1,3-dihydro-benzo[c][1,2]oxaborol-5-yloxy)-nicotinonitrile] | O+ R and Partial D (Partial D=partial killing of worm population) | O+ and partial D |  |
| N#Cc1ccc(Oc2ccc3c(c2)COB3O)c(OCC2CCCC2)c1 [3-(Cyclopentylmethoxy)-4-(1-hydroxy-1,3-dihydrobenzo[c][1,2]oxaborol-5-yloxy)benzonitrile] |  |  | Schistosomula phenotype day 4: R O− and Deg-M D |
| N#Cc1ccc(Oc2ccc3c(c2)COB3O)c(OC2CCCC2)c1 [3-(Cyclopentyloxy)-4-(1-hydroxy-1,3-dihydrobenzo[c][1,2]oxaborol-5-yloxy)benzonitrile] | R deg- and M D | O+ and Partial D (Partial D=partial killing of worm population) | Schistosomula phenotype 24 h: O++ and deg-M |
| N#Cc1ccc(Oc2ccc3c(c2)COB3O)c(OCC2CC2)c1 [3-(Cyclopropylmethoxy)-4-(1-hydroxy-1,3-dihydrobenzo[c][1,2]oxaborol-5-yloxy)benzonitrile] |  | O+ and partial D |  |
| COCCOc1nccc(Oc2ccc3c(c2)COB3O)c1C#N [4-(1-Hydroxy-1,3-dihydro-benzo[c][1,2]oxaborol-5-yloxy)-2-(2-methoxyethoxy)-nicotinonitrile] | O+ R and Partial D (Partial D=partial killing of worm population) | O+ and some and partial D | Schistosomula phenotype 24 h: R (R=round) and O+ |
| CC(C)OC(=O)c1ccc(Oc2ccc3c(c2)COB3O)c(F)c1 [5-(2-Fluoro-4-isopropyloxycarbonylphenoxy)-1-hydroxy-2,1-benzoxaborole] |  |  | Schistosomula phenotype day 4: O−, R |
| N#Cc1ccc(Oc2ccc3c(c2)COB3O)cc1C(F)(F)F [5-(4-Cyano-3-trifluoromethylphenoxy)-1,3-dihydro-1-hydroxy-2,1-benzoxaborole] | O, (O=overactive) and some and deg-m |  | Schistosomula phenotype day 2: O−, and deg-m−; Schistosomula phenotype day 4: O, (O=overactive) and some and deg-m |
| CCOC(=O)c1ccc(Oc2ccc3c(c2)COB3O)c(Oc2cc(C#N)ccn2)c1 [5-[4-Ethoxycarbonyl-2-(4-cyanopyridin-2-yloxy)phenoxy]-1,3-dihydro-1-hydroxy-2,1-benzoxaborole] | R, O,; also recorded: Partial D (Partial D=partial killing of worm population) |  | Schistosomula phenotype day 2: O, (O=overactive); also recorded: deg-m; Schistosomula phenotype day 4: O, (O=overactive) and some and deg-m |
| N#Cc1ccc(Oc2ccc3c(c2)COB3O)nc1OCC(F)(F)F [6-(1-Hydroxy-1,3-dihydro-benzo[c][1,2]oxaborol-5-yloxy)-2-(2,2,2-trifluoro-ethoxy)-nicotinonitrile] | O+ R and Partial D (Partial D=partial killing of worm population) |  |  |
| COCCNc1nc(Oc2ccc3c(c2)COB3O)ccc1C#N [6-(1-Hydroxy-1,3-dihydro-benzo[c][1,2]oxaborol-5-yloxy)-2-(2-methoxy-ethylamino)-nicotinonitrile] | R O and some and partial D |  |  |
| CC(=O)OCCOc1nc(Oc2ccc3c(c2)COB3O)ccc1C#N [6-(1-Hydroxy-1,3-dihydro-benzo[c][1,2]oxaborol-5-yloxy)-2-(acetyloxyethoxy)-nicotinonitrile] | R O+ and Partial D (Partial D=partial killing of worm population) | O+ and partial D |  |
| CC(C)COc1nc(Oc2ccc3c(c2)COB3O)ccc1C#N [6-(1-Hydroxy-1,3-dihydro-benzo[c][1,2]oxaborol-5-yloxy)-2-isobutoxy-nicotinonitrile] |  |  | Schistosomula phenotype 24 h: R− and O−; Schistosomula phenotype day 4: R (R=round) and O− |
| CC(C)Oc1nc(Oc2ccc3c(c2)COB3O)ccc1C#N [6-(1-Hydroxy-1,3-dihydro-benzo[c][1,2]oxaborol-5-yloxy)-2-isopropoxy-nicotinonitrile] | R O+ and Partial D (Partial D=partial killing of worm population) | O+ and Deg-M (Deg-M=worms in morphological disarray but still living) |  |
| CCCOc1nc(Oc2ccc3c(c2)COB3O)ccc1C#N [6-(1-Hydroxy-1,3-dihydro-benzo[c][1,2]oxaborol-5-yloxy)-2-propoxy-nicotinonitrile] | R O and partial D | O+ and Deg-M (Deg-M=worms in morphological disarray but still living) |  |
| N#Cc1ccc(Oc2ccc3c(c2)COB3O)nc1N1CCCC1 [6-(1-Hydroxy-1,3-dihydro-benzo[c][1,2]oxaborol-5-yloxy)-2-pyrrolidin-1-yl-nicotinonitrile] | R O and Partial D (Partial D=partial killing of worm population) | O+ and Deg-M (Deg-M=worms in morphological disarray but still living) |  |
